Test results: ChEMBL document CHEMBL1122466, “Synthesis of partially modified retro-inverso substance P analogues and their biological activity” (1983)
Residues, ends and D or L forms follow the SMILES beside them.

Assays:
Cavia porcellus [1] = species: Cavia porcellus; test: ED50 represents the concentration of the agonist in the organ bath corresponding to 50% of the maximal measured spasmogenic effect.; type: functional
Cavia porcellus [2] = species: Cavia porcellus; test: Relative potency in guinea pig ileum assay.; type: functional

| Structure (SMILES) | ED50 (Cavia porcellus [1]) [nM] | Relative potency (Cavia porcellus [2]) |
| --- | --- | --- |
| CSCC[C@@H](NC(=O)[C@H](CC(C)C)NC(=O)CC(=O)N[C@H](Cc1ccccc1)NC(=O)[C@@H](Cc1ccccc1)NC(=O)[C@@H]1CCC(=O)N1)C(N)=O | 0.9 | 22 |
| CSCC[C@H](NC(=O)[C@H](CC(C)C)NC(=O)CNC(=O)[C@H](Cc1ccccc1)NC(=O)[C@@H](Cc1ccccc1)C(=O)N[C@@H]1CCC(=O)N1)C(N)=O (HELM PEPTIDE1{[O=C1CC[C@@H](NC(=O)[C@H](Cc2ccccc2)C(=O)[*:2])N1].F.G.L.M.[am]}$$$$V2.0) |  | <0.01 |
